Source: ChEMBL document CHEMBL4346677, “Compounds based on 5-(perylen-3-ylethynyl)uracil scaffold: High activity against tick-borne encephalitis virus and non-specific activity against enterovirus A” (Eur J Med Chem, 2019)
Activity calls are given as the source filed them. The rule behind the calls is not given here.

Experiments:
[1] = Cytotoxicity against PEK cells assessed as formation of syncytium-like patterns of cells at 50 uM after 7 days by microscopic method; type: cell-based, Sus scrofa; details: pig, 168 h
Vero = assay: Cytotoxicity against African green monkey Vero cells assessed as formation of syncytium-like patterns of cells at 50 uM after 7 days by microscopic method; type: cell-based; details: chlorocebus sabaeus, 168 h
RD = assay: Cytotoxicity against human RD cells assessed as formation of syncytium-like patterns of cells at 50 uM after 7 days by microscopic method; type: cell-based; details: 168 h
[2] = Cytotoxicity against human RD cells assessed as reduction in cell viability after 7 days by microscopic method; type: cell-based
[3] = Cytotoxicity against human RD cells assessed as reduction in cell viability after 24 hrs by microscopic method; type: cell-based
Echovirus = assay: Antiviral activity against Echovirus 30 isolate 48461; type: functional, organism-based
[4] = Cytotoxicity against PEK cells assessed as reduction in cell viability after 24 hrs by microscopic method; type: cell-based, Sus scrofa; details: pig
[5] = test system: Tick-borne encephalitis virus; assay: Antiviral activity against TBEV Absettarov infected in PEK cells assessed as plaque reduction preincubated for 1 hr followed by overlaying with 1.26% methylcellulose and measured after 6 days by gentian violet staining-based assay; type: functional, organism-based
Poliovirus 1 = assay: Antiviral activity against poliovirus type 1 sabin 1; type: functional, organism-based
[6] = Cytotoxicity against African green monkey Vero cells assessed as reduction in cell viability after 24 hrs by microscopic method; type: cell-based; details: chlorocebus sabaeus
[7] = Cytotoxicity against PEK cells assessed as reduction in cell viability after 7 days by microscopic method; type: cell-based, Sus scrofa; details: pig
Enterovirus A71 = assay: Antiviral activity against Enterovirus A71 isolate 46973 infected in human RD cells assessed as reduction in virus induced cytopathic effect preincubated with viral suspension for 1 hr followed by cell addition measured after 5 to 7 days; type: functional, organism-based
[8] = Cytotoxicity against African green monkey Vero cells assessed as reduction in cell viability after 7 days by microscopic method; type: cell-based; details: chlorocebus sabaeus

| Structure (SMILES) | Activity [1] | Activity (Vero) | Activity (RD) | CC50 at 168 h [2] | CC50 at 24 h [3] | Activity (Echovirus) | CC50 at 24 h [4] | EC50 [5] | Activity (Poliovirus 1) | CC50 at 24 h [6] | CC50 at 168 h [7] | EC50 (Enterovirus A71) | CC50 at 168 h [8] |
| --- | --- | --- | --- | --- | --- | --- | --- | --- | --- | --- | --- | --- | --- |
| CC(C)(C)C(=O)OCn1c(=O)c(C#Cc2ccc3c4cccc5cccc(c6cccc2c63)c54)cn(CC(=O)NCCCCCCO)c1=O | Toxic | Toxic | Toxic | 38 µM | 19 µM | inactive | > 50 µM | 24 nM | inactive | 38 µM | > 50 µM | Not Active | > 50 µM |
| O=C(Cn1cc(C#Cc2ccc3c4cccc5cccc(c6cccc2c63)c54)c(=O)[nH]c1=O)N(CCO)CCO | Toxic | Toxic | Toxic | > 104 µM | > 104 µM | inactive | > 50 µM | 7 nM | inactive | > 50 µM | > 50 µM | Not Active | > 50 µM |
| O=C(Cn1cc(C#Cc2ccc3c4cccc5cccc(c6cccc2c63)c54)c(=O)[nH]c1=O)NCCCO | Toxic | Toxic | Toxic | > 104 µM | > 104 µM | inactive | > 50 µM | 6 nM | inactive | > 50 µM | > 50 µM | Not Active | > 50 µM |
| CCCCNC(=O)Cn1cc(C#Cc2ccc3c4cccc5cccc(c6cccc2c63)c54)c(=O)n(COC(=O)C(C)(C)C)c1=O | Toxic | Toxic | Toxic | 10 µM | 38 µM | inactive | > 50 µM | 54 nM | inactive | > 50 µM | > 50 µM | Not Active | > 50 µM |
| O=C(Cn1cc(C#Cc2ccc3c4cccc5cccc(c6cccc2c63)c54)c(=O)[nH]c1=O)NCCCCCO | Toxic | Toxic | Toxic | > 104 µM | > 104 µM | inactive | > 50 µM | 77 nM | inactive | > 50 µM | > 50 µM | Not Active | > 50 µM |
| CCCCNC(=O)Cn1cc(C#Cc2ccc3c4cccc5cccc(c6cccc2c63)c54)c(=O)[nH]c1=O | Toxic | Toxic | Toxic | 76 µM | 76 µM | inactive | > 50 µM | 14 nM | inactive | – | > 50 µM | Not Active | – |
| O=C(Cn1cc(C#Cc2ccc3c4cccc5cccc(c6cccc2c63)c54)c(=O)[nH]c1=O)NCCO | Toxic | Toxic | Toxic | > 104 µM | > 104 µM | inactive | > 50 µM | 3 nM | inactive | – | > 50 µM | Not Active | – |
| CC(C)(C)C(=O)OCn1c(=O)c(C#Cc2ccc3c4cccc5cccc(c6cccc2c63)c54)cn(CC(=O)O)c1=O | Toxic | Toxic | Toxic | – | – | inactive | > 50 µM | 1.2 nM | inactive | – | > 50 µM | – | – |
